Experimental data taken from patent publication US20260258035A1, “FIVE-MEMBERED AND SIX-MEMBERED NITROGEN-CONTAINING COMPOUND, AND INTERMEDIATE, PREPARATION METHOD AND USE THEREOF” (HANGZHOU SYNRX THERAPEUTICS BIOMEDICAL TECHNOLOGY CO., LTD., priority 2022, published 2026).
Where two headings read alike, the source gives them in different places.

Legend:
HCC1806 = test: Cell viability assay (CellTiter-Glo); assay type: cell-based, Human; conditions: HCC1806, 7 days, CellTiter-Glo, read-out: IC50 (nM) in cell viability assay
PARG = PARG (Homo sapiens, UniProt Q86W56); test: Biochemical assay (PARG, TFMU-ADPr substrate)
Chain of PARG (Q86W56 whole entry): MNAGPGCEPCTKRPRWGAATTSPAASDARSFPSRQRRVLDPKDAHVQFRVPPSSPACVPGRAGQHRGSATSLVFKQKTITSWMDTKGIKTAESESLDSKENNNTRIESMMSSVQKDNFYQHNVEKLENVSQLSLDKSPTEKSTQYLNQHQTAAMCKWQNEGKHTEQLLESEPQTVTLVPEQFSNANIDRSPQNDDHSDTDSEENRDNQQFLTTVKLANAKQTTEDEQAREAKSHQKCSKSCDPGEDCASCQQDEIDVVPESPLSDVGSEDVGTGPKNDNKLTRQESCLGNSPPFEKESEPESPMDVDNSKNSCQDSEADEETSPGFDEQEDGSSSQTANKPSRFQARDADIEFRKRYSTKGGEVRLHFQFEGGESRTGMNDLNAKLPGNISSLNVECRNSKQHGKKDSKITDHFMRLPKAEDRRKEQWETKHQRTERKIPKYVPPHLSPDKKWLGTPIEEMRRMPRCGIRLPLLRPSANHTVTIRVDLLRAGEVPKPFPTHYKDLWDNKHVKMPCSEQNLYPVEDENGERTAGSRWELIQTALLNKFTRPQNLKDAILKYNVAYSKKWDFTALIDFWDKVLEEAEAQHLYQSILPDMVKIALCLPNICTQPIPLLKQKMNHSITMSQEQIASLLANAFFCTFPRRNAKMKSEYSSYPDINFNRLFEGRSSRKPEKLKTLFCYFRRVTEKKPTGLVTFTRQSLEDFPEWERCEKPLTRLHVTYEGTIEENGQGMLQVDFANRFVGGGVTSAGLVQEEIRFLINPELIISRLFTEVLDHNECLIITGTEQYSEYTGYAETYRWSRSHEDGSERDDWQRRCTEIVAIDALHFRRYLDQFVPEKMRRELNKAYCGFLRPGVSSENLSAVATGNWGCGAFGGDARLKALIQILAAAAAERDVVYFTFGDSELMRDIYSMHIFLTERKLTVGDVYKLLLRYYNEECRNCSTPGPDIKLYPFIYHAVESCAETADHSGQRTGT

[1] = system: Human breast squamous carcinoma cells HCC1806; test: Cell function assay (In-Cell Western, PAR/pADPr after MMS); assay type: cell-based; conditions: read-out: IC50 (nM) in cell function assay
In short: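 HCC1806 cells adhered 24 h at 37 °C, 5% CO2, then were pretreated 1 h with compound (30000 nM down to 1 nM, plus 0 nM) or DMSO. MMS was then added at 0.5 mM final for 1 h before In-Cell Western detection of PAR/pADPr.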

[2] = 4 nM PARG, 66.2 uM TFMU-ADPr, 3 min at room temperature
[3] = HCC1806, In-Cell Western, MMS treatment
[4] = HCC1806, compound 1 h then 0.5 mM MMS 1 h, PAR/pADPr antibody, In-Cell Western

Row | SMILES | IC50 (HCC1806) [nM] | IC50 (HCC1806; Homo sapiens, HCC1806, 168 h) [nM] | IC50 (PARG; [2]) [nM] | IC50 (PARG; PARG, TFMU-ADPr substrate) [nM] | IC50 [1, 3] [nM] | IC50 [1, 4] [nM]
1 | C[C@@H]1CN(c2cc(S(=O)(=O)NC3(C#N)CC3)cn3c(-c4nnc(C(F)F)s4)ncc23)C[C@H](C)N1C(=O)C1CC1 [Example 78, N-(1-cyanocyclopropyl)-8-((3R,5S)-4-(cyclopropanecarbonyl)-3,5-dimethylpiperazin-1-yl)-3-(5-(difluoromethyl)-1,3,4-thiadiazol-2-yl)imidazo[1,5-a]pyridine-6-sulfonamide] | 866 | 500 to 5000 | < 100 | 7.59 | 7.34 | < 100
2 | CC(C)C(=O)N1CCN(c2cc(S(=O)(=O)NC3(C)CCOC3)cn3c(-c4nnc(C(F)F)s4)ncc23)CC1 (centres unmarked) [Example 58, 3-(5-(difluoromethyl)-1,3,4-thiadiazol-2-yl)-8-(4-isobutyrylpiperazin-1-yl)-N-(3-methyltetrahydrofuran-3-yl)imidazo[1,5-a]pyridine-6-sulfonamide] |  | > 30000 | < 100 | 25.1 | 2870 | > 1000
3 | [2H]c1nc(-c2nnc(C(F)F)s2)n2cc(S(=O)(=O)NC3(C)COC3)c(F)c(N3CCN(C(=O)C(C)C)CC3)c12 [Example 155, 3-(5-(difluoromethyl)-1,3,4-thiadiazol-2-yl)-7-fluoro-8-(4-isobutyrylpiperazin-1-yl)-N-(3-methyloxetan-3-yl)imidazo[1,5-a]pyridine-6-sulfonamide-1-d] | 727 | 500 to 5000 | < 100 | 1.68 | 39.1 | 100 to 500
4 | O=S(=O)(NC1(CF)CC1)c1cc(N2CCC3(CCO3)CC2)c2nnc(-c3nnc(C(F)F)s3)n2c1 [Example 110, 3-(5-(difluoromethyl)-1,3,4-thiadiazol-2-yl)-N-(1-(fluoromethyl)cyclopropyl)-8-(1-oxa-7-azaspiro[3.5]nonan-7-yl)-[1,2,4]triazolo[4,3-a]pyridine-6-sulfonamide] | 850 | 500 to 5000 | < 100 | 14 | 89.5 | < 100
5 | C[C@@H]1CN(c2cc(S(=O)(=O)NC3(C#N)CC3)cn3c(-c4nnc(C(F)F)s4)ncc23)CCN1C(=O)C1CC1 [Example 75, (R)-N-(1-cyanocyclopropyl)-8-(4-(cyclopropanecarbonyl)-3-methylpiperazin-1-yl)-3-(5-(difluoromethyl)-1,3,4-thiadiazol-2-yl)imidazo[1,5-a]pyridine-6-sulfonamide] | 370 | < 500 | < 100 | 13.2 | 3.78 | < 100
6 | C[C@@H]1CN(c2cc(S(=O)(=O)NC3(C#N)CC3)cn3c(-c4nnc(C(F)(F)F)s4)ncc23)CCN1C(=O)C1(C)CC1 [Example 80, (R)-N-(1-cyanocyclopropyl)-8-(3-methyl-4-(1-methylcyclopropane-1-carbonyl)piperazin-1-yl)-3-(5-(trifluoromethyl)-1,3,4-thiadiazol-2-yl)imidazo[1,5-a]pyridine-6-sulfonamide] | 764 | 500 to 5000 | < 100 | 28.8 | 7.57 | < 100
7 | CC(C)C(=O)N1CCN(c2cc(S(=O)(=O)NC3(C)CC3)cn3c(-c4nnc(C(F)F)s4)nnc23)CC1 [Example 99, 3-(5-(difluoromethyl)-1,3,4-thiadiazol-2-yl)-8-(4-isobutyrylpiperazin-1-yl)-N-(1-methylcyclopropyl)-[1,2,4]triazolo[4,3-a]pyridine-6-sulfonamide] | 372 | < 500 | < 100 | 6.51 | 26.8 | < 100
8 | [2H]c1nc(-c2nnc(C(F)F)s2)n2cc(S(=O)(=O)NC3(CF)COC3)cc(N3CCN(C(=O)C(C)C)CC3)c12 [Example 153, 3-(5-(difluoromethyl)-1,3,4-thiadiazol-2-yl)-N-(3-(fluoromethyl)oxetan-3-yl)-8-(4-isobutyrylpiperazin-1-yl)imidazo[1,5-a]pyridine-6-sulfonamide-1-d] | 352 | 500 to 5000 | < 100 | 5.34 | 2.99 | < 100
9 | CC(C)C(=O)N1CCN(c2cc(S(=O)(=O)NC3(CF)CC3)cn3c(-c4nnc(C(F)F)s4)nnc23)CC1 [Example 100, 3-(5-(difluoromethyl)-1,3,4-thiadiazol-2-yl)-N-(1-(fluoromethyl)cyclopropyl)-8-(4-isobutyrylpiperazin-1-yl)-[1,2,4]triazolo[4,3-a]pyridine-6-sulfonamide] | 448 | < 500 | < 100 | 1.99 | 4.96 | < 100
10 | CC(C)C(=O)N1CCN(c2cc(S(=O)(=O)NC3(CO)CC3)cn3c(-c4nnc(C(F)F)s4)ncc23)CC1 [Example 37, 3-(5-(difluoromethyl)-1,3,4-thiadiazol-2-yl)-N-(1-(hydroxymethyl)cyclopropyl)-8-(4-isobutyrylpiperazin-1-yl)imidazo[1,5-a]pyridine-6-sulfonamide] |  | 2670 | < 100 | 4.7 | 166 | 
11 | CC1(O)CCN(c2cc(S(=O)(=O)NC3(C#N)CC3)cn3c(-c4nnc(C(F)F)s4)ncc23)CC1 [Example 65, N-(1-cyanocyclopropyl)-3-(5-(difluoromethyl)-1,3,4-thiadiazol-2-yl)-8-(4-hydroxy-4-methylpiperidin-1-yl)imidazo[1,5-a]pyridine-6-sulfonamide] | 6000 | 5000 to 30000 | < 100 | 7.02 | 122 | 100 to 500
12 | CC(C)C(=O)N1CCN(c2cc(S(=O)(=O)NC34CC(C3)C4)cn3c(-c4nnc(C(F)F)s4)ncc23)CC1 [Example 54, N-(bicyclo[1.1.1]pentan-1-yl)-3-(5-(difluoromethyl)-1,3,4-thiadiazol-2-yl)-8-(4-isobutyrylpiperazin-1-yl)imidazo[1,5-a]pyridine-6-sulfonamide] | 9380 | 5000 to 30000 | < 100 | 11.4 | 26.5 | < 100
13 | CC(C)C(=O)N1CC2(CC=C(c3nc(-c4nnc(C(F)F)s4)n4cc(S(=O)(=O)NC5(C#N)CC5)ccc34)C2)C1 [Example 24, N-(1-cyanocyclopropyl)-3-(5-(difluoromethyl)-1,3,4-thiadiazol-2-yl)-1-(2-isobutyryl-2-azaspiro[3.4]oct-6-en-6-yl)imidazo[1,5-a]pyridine-6-sulfonamide] | 500 | < 500 | < 100 | 2.46 | 52.6 | < 100
14 | CC(C)C(=O)N1CCN(c2cc(S(=O)(=O)NC3(C)COC3)cn3c(-c4nnc(C(F)F)s4)ncc23)CC1 [Example 43, 3-(5-(difluoromethyl)-1,3,4-thiadiazol-2-yl)-8-(4-isobutyrylpiperazin-1-yl)-N-(3-methyloxetan-3-yl)imidazo[1,5-a]pyridine-6-sulfonamide] | 283 | < 500 | < 100 | 0.96 | 9.32 | < 100
15 | CC(C)C(=O)N1CCN(c2cc(S(=O)(=O)NC3(C)CC3)cn3c(-c4nnc(C(F)F)s4)ncc23)CC1 [Example 34, 3-(5-(difluoromethyl)-1,3,4-thiadiazol-2-yl)-8-(4-isobutyrylpiperazin-1-yl)-N-(1-methylcyclopropyl)imidazo[1,5-a]pyridine-6-sulfonamide] |  | < 500 | < 100 | 1.22 | 5.77 | < 100
16 | CC1(C(=O)N2CCN(c3cc(S(=O)(=O)NC4(C#N)CC4)cn4c(-c5nnc(C(F)F)s5)ncc34)CC2)CC1 [Example 76, N-(1-cyanocyclopropyl)-3-(5-(difluoromethyl)-1,3,4-thiadiazol-2-yl)-8-(4-(1-methylcyclopropane-1-carbonyl)piperazin-1-yl)imidazo[1,5-a]pyridine-6-sulfonamide] | 450 | < 500 | < 100 | 13.8 | 3.59 | < 100
17 | CC1(NS(=O)(=O)c2cc(N3CCC4(CC3)COC4)c3cnc(-c4nnc(C(F)F)s4)n3c2)COC1 [Example 56, 3-(5-(difluoromethyl)-1,3,4-thiadiazol-2-yl)-N-(3-methyloxetan-3-yl)-8-(2-oxa-7-azaspiro[3.5]nonan-7-yl)imidazo[1,5-a]pyridine-6-sulfonamide] | 802 | 500 to 5000 | < 100 | 0.86 | 22.9 | < 100
